Reference: ChEMBL document CHEMBL2029253, “Pharmacophore modeling, virtual screening and 3D-QSAR studies of 5-tetrahydroquinolinylidine aminoguanidine derivatives as sodium hydrogen exchanger inhibitors” (Bioorg Med Chem Lett, 2012)

Test: Inhibition of sodium hydrogen exchanger-mediated platelet swelling in human
Conditions: for IC50: Homo sapiens

Row | Structure (SMILES) | IC50 (read-out: IC50) | IC50 (read-out: pIC50 (converted)) | Ki
1 | COc1ccnc2c1/C(=N/N=C(N)N)CC(c1ccccc1Cl)C2 (configuration not stated) | < 50 nM | 50 nM | –
2 | N=C(N)N/N=c1\cc(-c2ccccc2)oc2ccccc12 | 6400 nM | 6400 nM | –
3 | Cc1ccnc2c1/C(=N/N=C(N)N)CC(c1cc(Cl)ccc1Cl)C2 (configuration not stated) | – | 57.9 nM | –
4 | Cc1coc2c1/C(=N/N=C(N)N)CC(c1ccccc1Cl)C2 (configuration not stated) | – | 82 nM | –
5 | Cc1[nH]nc2c1/C(=N/N=C(N)N)CC(c1ccccc1Cl)C2 (configuration not stated) | – | 55 nM | –
6 | N=C(N)N/N=C1\CC(c2ccccc2)Cc2ncccc21 (configuration not stated) | 410 nM | 410 nM | –
7 | Cc1ccnc2c1/C(=N/N=C(N)N)CC(c1cc(F)ccc1F)C2 (configuration not stated) | – | 39 nM | –
8 | COc1ccc(F)cc1C1C/C(=N\N=C(N)N)c2c(C)ccnc2C1 (configuration not stated) | – | 32 nM | –
9 | Cc1ccnc2c1/C(=N/N=C(N)N)CC(c1cc(F)ccc1Cl)C2 (configuration not stated) | – | 19 nM | 19 nM
10 | Cc1ncnc2c1/C(=N/N=C(N)N)CC(c1ccccc1Cl)C2 (configuration not stated) | – | 240 nM | –
11 | Cc1ccnc2c1/C(=N/N=C(N)N)CC(c1ccc(Cl)cc1Cl)C2 (configuration not stated) | – | 340 nM | –
12 | Cc1ccnc2c1/C(=N/N=C(N)N)CC(c1sc(Cl)cc1Cl)C2 (configuration not stated) | – | 49 nM | –
13 | Cc1csc2c1/C(=N/N=C(N)N)CC(c1ccccc1Cl)C2 (configuration not stated) | – | 220 nM | –
14 | Cc1ccnc2c1/C(=N/N=C(N)N)CC(c1sccc1Cl)C2 (configuration not stated) | – | 19 nM | –
15 | Cc1cnnc2c1/C(=N/N=C(N)N)CC(c1ccccc1Cl)C2 (configuration not stated) | – | 26 nM | –
16 | Cc1ccccc1C1C/C(=N\N=C(N)N)c2c(C)c[nH]c2C1 (configuration not stated) | – | 34 nM | –
17 | N=C(N)N/N=C1\CC(c2ccccc2)Cc2[nH]ccc21 (configuration not stated) | – | 3500 nM | –
18 | Cc1ccnc2c1/C(=N/N=C(N)N)CC(c1ccsc1Cl)C2 (configuration not stated) | – | 22 nM | –
19 | N=C(N)N/N=C1\CC(c2ccccc2)Oc2ccccc21 (configuration not stated) | ≤ 6400 nM | 3300 nM | –
20 | Cc1cccc2c1/C(=N/N=C(N)N)CC(c1ccccc1Cl)O2 (configuration not stated) | – | 200 nM | –
21 | Cc1ccnc2c1/C(=N/N=C(N)N)CC(c1cccc(Cl)c1Cl)C2 (configuration not stated) | – | 88.9 nM | –
22 | Cc1ccc(F)cc1C1C/C(=N\N=C(N)N)c2c(C)ccnc2C1 (configuration not stated) | – | 37 nM | –
23 | Cc1ccnc2c1/C(=N/N=C(N)N)CC(c1cc(Cl)sc1Cl)C2 (configuration not stated) | – | 19 nM | –
24 | Cc1ccnc2oc(-c3ccccc3Cl)c/c(=N\NC(=N)N)c12 | – | 360 nM | –

More lines, main results first:

Row | IC50 (read-out: IC50) | IC50 (read-out: pIC50 (converted)) | Structure (SMILES) | Ki
25 | 32 nM | 32 nM | Cc1ccnc2c1/C(=N/N=C(N)N)CC(c1ccccc1F)C2 (configuration not stated) | –
26 | < 50 nM | 40 nM | Cc1ccnc2c1/C(=N/N=C(N)N)CC(c1ccccc1Cl)C2 (configuration not stated) | –
27 | < 50 nM | 91 nM | Cc1ccnc2c1/C(=N/N=C(N)N)CC(c1ccccc1)C2 (configuration not stated) | –
28 | < 50 nM | 180 nM | Cc1cc(C)c2c(n1)CC(c1ccccc1)C/C2=N\N=C(N)N (configuration not stated) | –
29 | 57 nM | 57 nM | Cc1ccccc1C1C/C(=N\N=C(N)N)c2c(C)ccnc2C1 (configuration not stated) | –
30 | – | 47 nM | Cc1ccnc2c1/C(=N/N=C(N)N)CC(c1cccs1)C2 (configuration not stated) | –
31 | 2800 nM | 2800 nM | Cc1ccc2c(n1)CC(c1ccccc1)C/C2=N\N=C(N)N (configuration not stated) | –
32 | < 50 nM | 61 nM | Cc1ccnc2c1/C(=N/N=C(N)N)CC(c1cccc(Cl)c1)C2 (configuration not stated) | –
33 | – | 110 nM | Cc1ccnc2c1/C(=N/N=C(N)N)CC(c1ccco1)C2 (configuration not stated) | –
34 | – | 30 nM | Cc1ccnc2c1/C(=N/N=C(N)N)CC(c1ccsc1)C2 (configuration not stated) | –
35 | 56 nM | 56 nM | Cc1ccnc2c1/C(=N/N=C(N)N)CC(c1ccccc1Br)C2 (configuration not stated) | –
36 | < 50 nM | 550 nM | Cc1ccnc2c1/C(=N/N=C(N)N)CC(c1ccc(Cl)cc1)C2 (configuration not stated) | –
37 | 100 nM | 100 nM | COc1ccccc1C1C/C(=N\N=C(N)N)c2c(C)ccnc2C1 (configuration not stated) | –
